Experimental data taken from patent US12091426B2, “Bifunctional degraders of hematopoietic progenitor kinase and therapeutic uses thereof” (Nurix Therapeutics, Inc., priority 2021, dated 2024).

Molecular target: T1, HPK1 (Homo sapiens, UniProt Q92918)
T1 construct: A HiBiT tag was introduced by CRISPR on the N terminus of HPK1 in Jurkat cells; host or cells: Jurkat cells (ATCC TIB-152), monoclonal line with CRISPR knock-in of HiBiT at the endogenous HPK1 locus
Experiment: HPK1 Cellular HiBit Degradation Assay
Format: cell-based
Details: HiBiT HPK1 Jurkat cells, 24 hrs; for DC50: concentration at which 50% of HPK1 was remaining, read-out: DC50 Category; for Dmax: Jurkat, maximum degradation vs DMSO vehicle control, read-out: Dmax Category
In short: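 Degraders are dosed in an 11-point series (10 uM to 0.1 nM final) onto Jurkat cells carrying an N-terminal HiBiT tag on endogenous HPK1. After 24 hrs at 37° C, lysis-based HiBiT luminescence quantifies remaining HPK1 relative to vehicle, and curve fitting gives DC50 and Dmax.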

T1 sequence (Q92918 whole entry): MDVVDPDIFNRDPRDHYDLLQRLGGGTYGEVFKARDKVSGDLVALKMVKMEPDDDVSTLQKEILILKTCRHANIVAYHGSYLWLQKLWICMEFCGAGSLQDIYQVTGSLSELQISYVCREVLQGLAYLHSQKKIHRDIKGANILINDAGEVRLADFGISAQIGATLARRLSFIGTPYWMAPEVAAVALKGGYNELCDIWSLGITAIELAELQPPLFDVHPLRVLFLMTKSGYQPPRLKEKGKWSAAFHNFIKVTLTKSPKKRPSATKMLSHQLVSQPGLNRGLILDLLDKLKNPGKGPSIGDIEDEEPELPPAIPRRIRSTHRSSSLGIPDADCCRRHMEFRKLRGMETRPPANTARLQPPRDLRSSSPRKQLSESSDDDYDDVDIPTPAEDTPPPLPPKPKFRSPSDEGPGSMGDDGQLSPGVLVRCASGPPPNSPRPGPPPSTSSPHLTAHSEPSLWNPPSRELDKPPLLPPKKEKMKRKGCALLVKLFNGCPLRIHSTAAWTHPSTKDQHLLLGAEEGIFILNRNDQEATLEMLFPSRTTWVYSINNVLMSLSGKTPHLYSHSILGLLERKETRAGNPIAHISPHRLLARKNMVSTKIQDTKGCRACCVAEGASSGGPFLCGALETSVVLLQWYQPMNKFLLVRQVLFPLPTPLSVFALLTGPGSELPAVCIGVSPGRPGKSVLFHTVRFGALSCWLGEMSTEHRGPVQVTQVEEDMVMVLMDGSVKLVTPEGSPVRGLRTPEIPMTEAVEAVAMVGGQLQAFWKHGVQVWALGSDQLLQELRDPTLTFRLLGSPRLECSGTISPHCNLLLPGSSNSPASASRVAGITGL

| DC50 [µM] | Dmax [%] | SMILES |
| --- | --- | --- |
| 0.1 to 0.5 | 70 to 85 | Cc1cc(C2CCC(=O)NC2=O)ccc1N1CCC(C(=O)N2CCC(C)(C(=O)N3CCC4(CC3)C(=O)N([C@H]3C[C@@H](N5CCCCC5)C3)c3cc(-c5cc6ncn(C(C)C)c6c(NC6CC6)n5)ccc34)CC2)CC1 (mixture of isomers) [Example 226, (3RS)-3-(4-{4-[4-({6-[4-(cyclopropylamino)-3-(propan-2-yl)-3H-imidazo[4,5-c]pyridin-6-yl]-2-oxo-1-[(1S,3S)-3-(piperidin-1-yl)cyclobutyl]-1,2-dihydrospiro[indole-3,4′-piperidin]-1′-yl}carbonyl)-4-methylpiperidine-1-carbonyl]piperidin-1-yl}-3-methylphenyl)piperidine-2,6-dione] |
| 0.1 to 0.5 | 50 to 70 | CC(C)n1cnc2cc(-c3ccc4c(c3)N([C@H]3C[C@@H](N5CCCCC5)C3)C(=O)C43CCN(C(=O)[C@H]4CCN(C(=O)C5CCN(c6ccc(C7CCC(=O)NC7=O)cn6)CC5)C4)CC3)nc(Nc3ccncc3F)c21 (mixture of isomers) [Example 34, (3RS)-3-(6-{4-[(3S)-3-[(6-{4-[(3-fluoropyridin-4-yl)amino]-3-(propan-2-yl)-3H-imidazo[4,5-c]pyridin-6-yl}-2-oxo-1-[(1S,3S)-3-(piperidin-1-yl)cyclobutyl]-1,2-dihydrospiro[indole-3,4′-piperidin]-1′-yl)carbonyl]pyrrolidine-1-carbonyl]piperidin-1-yl}pyridin-3-yl)piperidine-2,6-dione] |
| 0.1 to 0.5 | 50 to 70 | CC(C)n1cnc2cc(-c3ccc4c(c3)N([C@H]3C[C@@H](N5CCCCC5)C3)C(=O)C43CCN(C(=O)[C@H]4CC[C@H](C(=O)N5CCC(N(C)c6ccc(C7CCC(=O)NC7=O)cc6)CC5)CC4)CC3)nc(NC3CC3)c21 (mixture of isomers) [Example 134, (3RS)-3-{4-[methyl({1-[(1R,4R)-4-({6-[4-(cyclopropylamino)-3-(propan-2-yl)-3H-imidazo[4,5-c]pyridin-6-yl]-2-oxo-1-[(1S,3S)-3-(piperidin-1-yl)cyclobutyl]-1,2-dihydrospiro[indole-3,4′-piperidin]-1′-yl}carbonyl)cyclohexanecarbonyl]piperidin-4-yl})amino]phenyl}piperidine-2,6-dione] |
| < 0.1 | 70 to 85 | CC(C)n1cnc2cc(-c3ccc4c(c3)N([C@H]3C[C@@H](N5CCCCC5)C3)C(=O)C43CCN(C(=O)[C@@H]4CCN(C(=O)[C@H]5CC[C@H](Oc6ccc(N7CCC(=O)NC7=O)cn6)CC5)C4)CC3)nc(Nc3ccncc3F)c21 [Example 22, 1-(6-{[(1R,4R)-4-[(3R)-3-[(6-{4-[(3-fluoropyridin-4-yl)amino]-3-(propan-2-yl)-3H-imidazo[4,5-c]pyridin-6-yl}-2-oxo-1-[(1S,3S)-3-(piperidin-1-yl)cyclobutyl]-1,2-dihydrospiro[indole-3,4′-piperidin]-1′-yl)carbonyl]pyrrolidine-1-carbonyl]cyclohexyl]oxy}pyridin-3-yl)-1,3-diazinane-2,4-dione] |
| < 0.1 | 70 to 85 | CC(C)n1cnc2cc(-c3ccc4c(c3)N([C@H]3C[C@@H](N5CCCCC5)C3)C(=O)C43CCN(C(=O)C4CCN(C(=O)C5CCN(c6ccc(C7CCC(=O)NC7=O)cc6)CC5)CC4)CC3)nc(Nc3ccncc3F)c21 (stereo partly drawn) [Example 68, 3-(4-(4-(4-(6-(4-((3-fluoropyridin-4-yl)amino)-3-isopropyl-3H-imidazo[4,5-c]pyridin-6-yl)-2-oxo-1-((1S,3S)-3-(piperidin-1-yl)cyclobutyl)spiro[indoline-3,4′-piperidine]-1′-carbonyl)piperidine-1-carbonyl)piperidin-1-yl)phenyl)piperidine-2,6-dione] |
| < 0.1 | 70 to 85 | CC(C)n1cnc2cc(-c3ccc4c(c3)N([C@H]3C[C@@H](N5CCCCC5)C3)C(=O)C43CCN(C(=O)C4CCN(C(=O)CN5CCN(c6ccc(C7CCC(=O)NC7=O)cn6)CC5)CC4)CC3)nc(Nc3ccccc3F)c21 (mixture of isomers) [Example 95, (3RS)-3-{6-[4-(2-{4-[(6-{4-[(2-fluorophenyl)amino]-3-(propan-2-yl)-3H-imidazo[4,5-c]pyridin-6-yl}-2-oxo-1-[(1S,3S)-3-(piperidin-1-yl)cyclobutyl]-1,2-dihydrospiro[indole-3,4′-piperidin]-1′-yl)carbonyl]piperidin-1-yl}-2-oxoethyl)piperazin-1-yl]pyridin-3-yl}piperidine-2,6-dione] |
| < 0.1 | 70 to 85 | CC(C)n1cnc2cc(-c3ccc4c(c3)N([C@H]3C[C@@H](N5CCCCC5)C3)C(=O)C43CCN(C(=O)C4(C)CCN(C(=O)[C@H]5CC[C@H](Nc6ccc(C7CCC(=O)NC7=O)cc6)CC5)CC4)CC3)nc(NC3CC3)c21 (mixture of isomers) [Example 191, (3RS)-3-(4-{[(1R,4R)-4-[4-({6-[4-(cyclopropylamino)-3-(propan-2-yl)-3H-imidazo[4,5-c]pyridin-6-yl]-2-oxo-1-[(1S,3S)-3-(piperidin-1-yl)cyclobutyl]-1,2-dihydrospiro[indole-3,4′-piperidin]-1′-yl}carbonyl)-4-methylpiperidine-1-carbonyl]cyclohexyl]amino}phenyl)piperidine-2,6-dione] |
| 0.1 to 0.5 | 70 to 85 | CC(C)n1cnc2cc(-c3ccc4c(c3)N([C@H]3C[C@@H](N5CCCCC5)C3)C(=O)C43CCN(C(=O)[C@]4(C)CCN(C(=O)C5CCN(c6ccc(C7CCC(=O)NC7=O)c(F)c6)CC5)C4)CC3)nc(NC3CC3)c21 (mixture of isomers) [Example 185, (3RS)-3-(4-{4-[(3R)-3-({6-[4-(cyclopropylamino)-3-(propan-2-yl)-3H-imidazo[4,5-c]pyridin-6-yl]-2-oxo-1-[(1S,3S)-3-(piperidin-1-yl)cyclobutyl]-1,2-dihydrospiro[indole-3,4′-piperidin]-1′-yl}carbonyl)-3-methylpyrrolidine-1-carbonyl]piperidin-1-yl}-2-fluorophenyl)piperidine-2,6-dione] |
| < 0.1 | 70 to 85 | CC(C)n1cnc2cc(-c3ccc4c(c3)N([C@H]3C[C@@H](N5CCCCC5)C3)C(=O)C43CCN(C(=O)C4(O)CCN(C(=O)C5CCN(c6ccc(C7CCC(=O)NC7=O)cc6)CC5)CC4)CC3)nc(NC3CC3)c21 (mixture of isomers) [Example 274, (3RS)-3-(4-{4-[4-({6-[4-(cyclopropylamino)-3-(propan-2-yl)-3H-imidazo[4,5-c]pyridin-6-yl]-2-oxo-1-[(1S,3S)-3-(piperidin-1-yl)cyclobutyl]-1,2-dihydrospiro[indole-3,4′-piperidin]-1′-yl}carbonyl)-4-hydroxypiperidine-1-carbonyl]piperidin-1-yl}phenyl)piperidine-2,6-dione] |

| SMILES | DC50 [µM] | Dmax [%] |
| --- | --- | --- |
| CC(C)n1cnc2cc(-c3ccc4c(c3)N([C@H]3C[C@@H](N5CCCCC5)C3)C(=O)C43CCN(CC(=O)N(C)C4CCN(C(=O)C5CCN(c6ccc(C7CCC(=O)NC7=O)cn6)CC5)CC4)CC3)nc(NC3CC3)c21 (stereo partly drawn) [Example 200, 2-{6-[4-(cyclopropylamino)-3-(propan-2-yl)-3H-imidazo[4,5-c]pyridin-6-yl]-2-oxo-1-[(1S,3S)-3-(piperidin-1-yl)cyclobutyl]-1,2-dihydrospiro[indole-3,4′-piperidin]-1′-yl}-N-(1-{1-[5-(2,6-dioxopiperidin-3-yl)pyridin-2-yl]piperidine-4-carbonyl}piperidin-4-yl)-N-methylacetamide] | 0.1 to 0.5 | > 85 |
